Where a SMILES comes first, the peptide text is derived from it. The star is where a group is joined. For = O=C*
tested on: differentiated HL-60 cells; assay type: cell-based, human; settings: 72 h
Protocol: HEK-293 cells (American Type Culture Collection, Manassas, VA, USA) were maintained in DMEM (Thermo Fisher Scientific, Waltham, MA, USA) containing 10% FBS (Thermo Fisher Scientific) in a humidified atmosphere at 5% CO2 and 37 °C. Human acute leukemia-derived HL-60 cells (RIKEN Cell Bank, Ibaraki, Japan) were cultured in RPMI-1640 medium (Thermo Fisher Scientific) containing 10% FBS in a humidified atmosphere at 5% CO2 and 37 °C. HL-60 cells were treated with 500 μM dibutyryl-cAMP (Sigma-Aldrich, St. Louis, MO, USA) for 72 h to differentiate the cells into neutrophilic/granulocytic cells as described elsewhere. The ability of MCT-2-related peptides to activate HL-60 cells differentiated into neutrophilic/granulocytic cells was evaluated by stimulation of β-hexosaminidase secretion from the cells. Briefly, differentiated HL-60 cells were washed 3 times with ice-cold HEPES-buffered Hank’s solution (HBHS; 10 mM HEPES, 136.9 mM NaCl, 5.4 mM KCl, 1.2 mM CaCl2, 0.44 mM KH2PO4, 0.49 mM MgCl2, 0.41 mM MgSO4, 0.34 mM Na2HPO4, 5.5 mM glucose, 4.2 mM NaHCO3, and 0.1% BSA, pH 7.4). The cells were resuspended in HBHS at a density of 5.6 × 10^6 cells/mL, and DNase I (Sigma-Aldrich) and cytochalasin B (Sigma-Aldrich) were each added at a final concentration of 5 μg/mL. The cell suspension in each tube (5.0 × 10^5 cells/90 μL) was preincubated at 37 °C for 10 min and stimulated with 10 μL synthetic peptide solution at 37 °C for 10 min. The inhibitory effects of inhibitors against FPR1 [CysH (Sigma-Aldrich)] and FPR2 [PBP10 (Tocris Bioscience, Bristol, UK)] on β-hexosaminidase release induced by MCT-2 and its derivatives were also evaluated in the differentiated HL-60 cells; each cell suspension prepared as above (90 μL) was transferred to a tube (5.0 × 10^5 cells/tube) with 5 μL inhibitor solution for FPR1 (CysH) or FPR2 (PBP10). Each tube was then preincubated at 37 °C for 10 min and stimulated with 5 μL synthetic peptide solution at 37 °C for 10 min. After stimulation, 200 μL ice-cold reaction quenching buffer (25 mM Tris, 123 mM NaCl, and 2.7 mM KCl, pH 7.4) was added to each cell suspension to stop the reaction. Thereafter, these tubes were centrifuged at 4 °C and 2300× g for 1 min, and each supernatant was transferred into a new tube. β-Hexosaminidase activity in the supernatant was measured as described previously. Briefly, 90 μL supernatant was transferred to each well of a 96-well microtiter plate, and 60 μL of a substrate solution for β-hexosaminidase [10 mM p-nitrophenyl N-acetyl-β-D-glucosaminide (Sigma-Aldrich), 40 mM citrate, and 70 mM NaHPO4, pH 4.5] was added to initiate the enzyme reaction. After incubation of the plate at 37 °C for 1 h, 100 μL of 400 mM glycine (pH 10.7) was added to stop the reaction. The absorbance at 415 nm for the resulting p-nitrophenol and at 490 nm for the reference was measured using a microtiter plate reader (Viento XS; BioTek Instruments, Winooski, VT, USA). The ability of each peptide to induce β-hexosaminidase release was expressed as a percentage of enzyme secretion promoted by 10 μM MCT-2(1–15) that induced the maximum response for the elucidation of full or partial agonists to the activity of MCT-2(1–15) (Figure 2 and Figure 4, Table 2) or a percentage of the total enzyme activity, which was the enzyme activity released after disruption of the cells with 0.05% Triton X-100 (Figure 3).

EC50 [nM] | Structure (SMILES)
26000 | CSCC[C@H](NC=O)C(=O)N[C@H](C(=O)N1CCC[C@H]1C(=O)N[C@@H](CCSC)C(=O)N[C@@H](CCCNC(=N)N)C(=O)O)[C@@H](C)O [MCT-2(1–5)] (For-MTPMR-OH)
203000 | CSCC[C@H](NC=O)C(=O)N[C@H](C(=O)N1CCC[C@H]1C(=O)N[C@@H](CCSC)C(=O)N[C@@H](CCCNC(=N)N)C(=O)N[C@@H](CCCCN)C(=O)O)[C@@H](C)O [MCT-2(1–6)] (For-MTPMRK-OH)
35500 | CC[C@H](C)[C@H](NC(=O)[C@H](CCCCN)NC(=O)[C@H](CCCNC(=N)N)NC(=O)[C@H](CCSC)NC(=O)[C@@H]1CCCN1C(=O)[C@@H](NC(=O)[C@H](CCSC)NC=O)[C@@H](C)O)C(=O)O [MCT-2(1–7)] (For-MTPMRKI-OH)
41300 | CC[C@H](C)[C@H](NC(=O)[C@H](CCCCN)NC(=O)[C@H](CCCNC(=N)N)NC(=O)[C@H](CCSC)NC(=O)[C@@H]1CCCN1C(=O)[C@@H](NC(=O)[C@H](CCSC)NC=O)[C@@H](C)O)C(=O)N[C@@H](CC(N)=O)C(=O)O [MCT-2(1–8)] (For-MTPMRKIN-OH)
10800 | CC[C@H](C)[C@H](NC(=O)[C@H](CCCCN)NC(=O)[C@H](CCCNC(=N)N)NC(=O)[C@H](CCSC)NC(=O)[C@@H]1CCCN1C(=O)[C@@H](NC(=O)[C@H](CCSC)NC=O)[C@@H](C)O)C(=O)N[C@@H](CC(N)=O)C(=O)N1CCC[C@H]1C(=O)O [MCT-2(1–9)] (For-MTPMRKINP-OH)
633 ± 153 | CC[C@H](C)[C@H](NC(=O)[C@H](CCCCN)NC(=O)[C@H](CCCNC(=N)N)NC(=O)[C@H](CCSC)NC(=O)[C@@H]1CCCN1C(=O)[C@@H](NC(=O)[C@H](CCSC)NC=O)[C@@H](C)O)C(=O)N[C@@H](CC(N)=O)C(=O)N1CCC[C@H]1C(=O)N[C@@H](CC(C)C)C(=O)N[C@@H](CCSC)C(=O)N[C@@H](CCCCN)C(=O)O [MCT-2(1–12)] (For-MTPMRKINPLMK-OH)
186 ± 33.6 | CC[C@H](C)[C@H](NC(=O)[C@H](CCCCN)NC(=O)[C@H](CCCNC(=N)N)NC(=O)[C@H](CCSC)NC(=O)[C@@H]1CCCN1C(=O)[C@@H](NC(=O)[C@H](CCSC)NC=O)[C@@H](C)O)C(=O)N[C@@H](CC(N)=O)C(=O)N1CCC[C@H]1C(=O)N[C@@H](CC(C)C)C(=O)N[C@@H](CCSC)C(=O)N[C@@H](CCCCN)C(=O)N[C@@H](CC(C)C)C(=O)O [MCT-2(1–13)] (For-MTPMRKINPLMKL-OH)
96.7 ± 17.6 | CC[C@H](C)[C@H](NC(=O)[C@H](CC(C)C)NC(=O)[C@H](CCCCN)NC(=O)[C@H](CCSC)NC(=O)[C@H](CC(C)C)NC(=O)[C@@H]1CCCN1C(=O)[C@H](CC(N)=O)NC(=O)[C@@H](NC(=O)[C@H](CCCCN)NC(=O)[C@H](CCCNC(=N)N)NC(=O)[C@H](CCSC)NC(=O)[C@@H]1CCCN1C(=O)[C@@H](NC(=O)[C@H](CCSC)NC=O)[C@@H](C)O)[C@@H](C)CC)C(=O)O [MCT-2(1–14)] (For-MTPMRKINPLMKLI-OH)
> 10000 | CC[C@H](C)[C@H](NC(=O)[C@H](CC(C)C)NC(=O)[C@H](CCCCN)NC(=O)[C@H](CCSC)NC(=O)[C@H](CC(C)C)NC(=O)[C@@H]1CCCN1C(=O)[C@H](CC(N)=O)NC(=O)[C@@H](NC(=O)[C@H](CCCCN)NC(=O)[C@H](CCCNC(=N)N)NC(=O)[C@H](CCSC)NC(=O)[C@@H]1CCCN1C(=O)[C@@H](NC(=O)[C@H](C)NC=O)[C@@H](C)O)[C@@H](C)CC)C(=O)N[C@@H](CC(N)=O)C(=O)O [[Ala^1]MCT-2] (For-ATPMRKINPLMKLIN-OH)
0.61 ± 0.07 | CC[C@H](C)[C@H](NC(=O)[C@H](CC(C)C)NC(=O)[C@H](CCCCN)NC(=O)[C@H](CCSC)NC(=O)[C@H](CC(C)C)NC(=O)[C@@H]1CCCN1C(=O)[C@H](CC(N)=O)NC(=O)[C@@H](NC(=O)[C@H](CCCCN)NC(=O)[C@H](CCCNC(=N)N)NC(=O)[C@H](CCSC)NC(=O)[C@@H]1CCCN1C(=O)[C@H](C)NC(=O)[C@H](CCSC)NC=O)[C@@H](C)CC)C(=O)N[C@@H](CC(N)=O)C(=O)O [[Ala^2]MCT-2] (For-MAPMRKINPLMKLIN-OH)
16.3 ± 0.29 | CC[C@H](C)[C@H](NC(=O)[C@H](CC(C)C)NC(=O)[C@H](CCCCN)NC(=O)[C@H](CCSC)NC(=O)[C@H](CC(C)C)NC(=O)[C@@H]1CCCN1C(=O)[C@H](CC(N)=O)NC(=O)[C@@H](NC(=O)[C@H](CCCCN)NC(=O)[C@H](CCCNC(=N)N)NC(=O)[C@H](CCSC)NC(=O)[C@H](C)NC(=O)[C@@H](NC(=O)[C@H](CCSC)NC=O)[C@@H](C)O)[C@@H](C)CC)C(=O)N[C@@H](CC(N)=O)C(=O)O [[Ala^3]MCT-2] (For-MTAMRKINPLMKLIN-OH)
68 ± 2.65 | CC[C@H](C)[C@H](NC(=O)[C@H](CC(C)C)NC(=O)[C@H](CCCCN)NC(=O)[C@H](CCSC)NC(=O)[C@H](CC(C)C)NC(=O)[C@@H]1CCCN1C(=O)[C@H](CC(N)=O)NC(=O)[C@@H](NC(=O)[C@H](CCCCN)NC(=O)[C@H](CCCNC(=N)N)NC(=O)[C@H](C)NC(=O)[C@@H]1CCCN1C(=O)[C@@H](NC(=O)[C@H](CCSC)NC=O)[C@@H](C)O)[C@@H](C)CC)C(=O)N[C@@H](CC(N)=O)C(=O)O [[Ala^4]MCT-2] (For-MTPARKINPLMKLIN-OH)
61.3 ± 0.58 | CC[C@H](C)[C@H](NC(=O)[C@H](CC(C)C)NC(=O)[C@H](CCCCN)NC(=O)[C@H](CCSC)NC(=O)[C@H](CC(C)C)NC(=O)[C@@H]1CCCN1C(=O)[C@H](CC(N)=O)NC(=O)[C@@H](NC(=O)[C@H](CCCCN)NC(=O)[C@H](C)NC(=O)[C@H](CCSC)NC(=O)[C@@H]1CCCN1C(=O)[C@@H](NC(=O)[C@H](CCSC)NC=O)[C@@H](C)O)[C@@H](C)CC)C(=O)N[C@@H](CC(N)=O)C(=O)O [[Ala^5]MCT-2] (For-MTPMAKINPLMKLIN-OH)
64 ± 3 | CC[C@H](C)[C@H](NC(=O)[C@H](C)NC(=O)[C@H](CCCNC(=N)N)NC(=O)[C@H](CCSC)NC(=O)[C@@H]1CCCN1C(=O)[C@@H](NC(=O)[C@H](CCSC)NC=O)[C@@H](C)O)C(=O)N[C@@H](CC(N)=O)C(=O)N1CCC[C@H]1C(=O)N[C@@H](CC(C)C)C(=O)N[C@@H](CCSC)C(=O)N[C@@H](CCCCN)C(=O)N[C@@H](CC(C)C)C(=O)N[C@H](C(=O)N[C@@H](CC(N)=O)C(=O)O)[C@@H](C)CC [[Ala^6]MCT-2] (For-MTPMRAINPLMKLIN-OH)
94.7 ± 3.21 | CC[C@H](C)[C@H](NC(=O)[C@H](CC(C)C)NC(=O)[C@H](CCCCN)NC(=O)[C@H](CCSC)NC(=O)[C@H](CC(C)C)NC(=O)[C@@H]1CCCN1C(=O)[C@H](CC(N)=O)NC(=O)[C@H](C)NC(=O)[C@H](CCCCN)NC(=O)[C@H](CCCNC(=N)N)NC(=O)[C@H](CCSC)NC(=O)[C@@H]1CCCN1C(=O)[C@@H](NC(=O)[C@H](CCSC)NC=O)[C@@H](C)O)C(=O)N[C@@H](CC(N)=O)C(=O)O [[Ala^7]MCT-2] (For-MTPMRKANPLMKLIN-OH)
31 ± 3.97 | CC[C@H](C)[C@H](NC(=O)[C@H](CCCCN)NC(=O)[C@H](CCCNC(=N)N)NC(=O)[C@H](CCSC)NC(=O)[C@@H]1CCCN1C(=O)[C@@H](NC(=O)[C@H](CCSC)NC=O)[C@@H](C)O)C(=O)N[C@@H](C)C(=O)N1CCC[C@H]1C(=O)N[C@@H](CC(C)C)C(=O)N[C@@H](CCSC)C(=O)N[C@@H](CCCCN)C(=O)N[C@@H](CC(C)C)C(=O)N[C@H](C(=O)N[C@@H](CC(N)=O)C(=O)O)[C@@H](C)CC [[Ala^8]MCT-2] (For-MTPMRKIAPLMKLIN-OH)

Reference: article PMC8071274 (International Journal of Molecular Sciences, 2021)
